# How the values were obtained:
# [1] = Human Plasma Protein Binding (Test B); type: in vitro ADME; settings: fraction unbound (fu)
# Procedure, shortened: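 Values given as % free (fu) in human plasma, using the method of Wernevik et al. (2020). For compounds tested more than once, the arithmetic mean is given.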
# [2] = Human Liver Microsomal Stability (Test C); type: in vitro ADME; settings: for microsomal CLint: human, liver microsomes
# Procedure, shortened: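 CLint (μl/min/mg protein) derived from compound depletion in human liver microsomes following a published standardized early-DMPK protocol; replicate determinations given as arithmetic mean.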
# [3] = Human Hepatocyte Stability (Test D); type: in vitro ADME; settings: geometric mean if run multiple times; for hepatocyte CLint at 1 µM: human, cryopreserved pooled human hepatocytes (LiverPool 10-Donor)
# Procedure, shortened: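 Intrinsic clearance (μL/min/10^6 cells), derived as kV/N from the log-linear loss of parent compound. Compound incubated at 37 °C with cryopreserved pooled human hepatocytes, 0.25×10^6 cells in 0.25 mL L-15; dosing solution 100 μM in acetonitrile. Singlicate incubations, cassette LC-MS; repeats reported as geometric mean.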
# [4] = Rat Hepatocyte Stability (Test E); type: in vitro ADME; settings: geometric mean if run multiple times; for hepatocyte CLint: rat, hepatocytes
# Procedure, shortened: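 Intrinsic clearance in rat hepatocytes, expressed as μl/min/10^6 cells, following the literature integrated DMPK panel method. Repeat determinations combined as geometric mean.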
# Solubility (Test F) = type: physicochemical; settings: arithmetic mean if run multiple times
# Experimental: The assay was conducted according to the Solubility Assay described in pages 164-167 of Wernevik, J. et al., “A Fully Integrated Assay Panel for Early Drug Metabolism and Pharmacokinetics Profiling”, Assay and Drug Development Technologies, 2020, 18(4), 157-179. Data are reported in Table 36 as solubility ([…]. Where the assay was run multiple times for the same compound, the arithmetic mean is reported.
# human RXFP1 = molecular target: T1, human RXFP1 (Homo sapiens, UniProt Q9HBX9); assay: RXFP1 Hu cAMP (Test A); type: cell-based; design: expressed in transfected cells; host or cells: Jump-In T-REx CHO-K1 cells (ThermoFisher), induced with 10 ng/ml doxycycline for 24 h; settings: RXFP1 Hu cAMP; for EC50: read-out: Test A EC50
# T1 sequence (Q9HBX9 1-757): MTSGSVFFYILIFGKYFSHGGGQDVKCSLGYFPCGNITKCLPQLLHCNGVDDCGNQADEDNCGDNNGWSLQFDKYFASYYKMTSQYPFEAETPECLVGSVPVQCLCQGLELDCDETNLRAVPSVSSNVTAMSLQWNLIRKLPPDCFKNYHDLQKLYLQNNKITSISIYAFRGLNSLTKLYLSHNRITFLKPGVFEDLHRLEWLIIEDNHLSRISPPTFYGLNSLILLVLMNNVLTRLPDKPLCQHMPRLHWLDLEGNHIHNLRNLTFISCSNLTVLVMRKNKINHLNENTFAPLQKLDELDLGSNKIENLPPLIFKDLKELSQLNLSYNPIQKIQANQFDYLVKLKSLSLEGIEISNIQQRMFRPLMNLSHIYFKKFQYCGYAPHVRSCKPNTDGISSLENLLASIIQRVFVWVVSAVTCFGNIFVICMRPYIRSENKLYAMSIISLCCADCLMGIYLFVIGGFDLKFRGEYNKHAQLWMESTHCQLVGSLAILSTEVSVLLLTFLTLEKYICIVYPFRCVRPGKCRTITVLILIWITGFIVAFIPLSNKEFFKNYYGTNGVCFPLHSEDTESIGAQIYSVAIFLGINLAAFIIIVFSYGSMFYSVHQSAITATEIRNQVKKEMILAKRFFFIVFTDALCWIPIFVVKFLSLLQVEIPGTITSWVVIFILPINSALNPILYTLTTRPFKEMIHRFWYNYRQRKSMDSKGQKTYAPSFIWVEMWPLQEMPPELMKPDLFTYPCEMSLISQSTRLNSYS
# Procedure, shortened: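 Cells: CHO-K1 stably carrying human RXFP1, expressed after 24 h 10 ng/ml doxycycline; 0.5 mM IBMX final, HTRF detection after 2 h at room temperature.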
structure (smiles),measurement,setting,value
"COc1cc(F)c(-c2ccc(C[C@H](C(=O)O)N(C)C)cc2)cc1C(=O)N[C@@H]1[C@H]2CC[C@H](C2)[C@@H]1C(=O)Nc1cccc(S(=O)(=O)C(F)(F)F)c1 [Example 292, (R)-2-(Dimethylamino)-3-(2′-fluoro-4′-methoxy-5′-(((1S,2R,3S,4R)-3-((3-((trifluoromethyl)sulfonyl)phenyl)carbamoyl)bicyclo[2.2.1]heptan-2-yl)carbamoyl)-[1,1′-biphenyl]-4-yl)propanoic acid]",Test B Human Plasma Protein Binding (% free),[1],1.2 % free
same,microsomal CLint,[2],24 µL/min/mg
same,hepatocyte CLint at 1 µM,[3],4.6 µL/min/1e6 cells
same,hepatocyte CLint,[4],14 µL/min/1e6 cells
same,solubility,Solubility (Test F),18 µM
same,Test A Sinf,human RXFP1,110%
same,EC50,human RXFP1,77 nM
"COc1cc(F)c(O[C@H]2CC[C@@](C)(C(=O)O)CC2)cc1C(=O)Nc1ccccc1C(=O)NCC(C)(C)C [Example 142, (1s,4s)-4-(2-Fluoro-4-methoxy-5-((2-(neopentylcarbamoyl)phenyl)-carbamoyl)phenoxy)-1-methylcyclohexane-1-carboxylic acid]",Test B Human Plasma Protein Binding (% free),[1],1.2 % free
same,microsomal CLint,[2],< 3 µL/min/mg
same,hepatocyte CLint at 1 µM,[3],3.3 µL/min/1e6 cells
same,hepatocyte CLint,[4],9.8 µL/min/1e6 cells
same,solubility,Solubility (Test F),6.5 µM
same,Test A Sinf,human RXFP1,129%
same,EC50,human RXFP1,320 nM
"COc1cc(F)c(Cc2cn[nH]c2)cc1C(=O)N[C@@H]1[C@H]2CC[C@H](C2)[C@@H]1C(=O)Nc1cccc(S(=O)(=O)C(F)(F)F)c1 [Example 219, (1R,2S,3R,4S)-3-(5-((1H-Pyrazol-4-yl)methyl)-4-fluoro-2-methoxybenzamido)-N-(3-((trifluoromethyl)sulfonyl)phenyl)bicyclo[2.2.1]heptane-2-carboxamide]",Test B Human Plasma Protein Binding (% free),[1],0.19 % free
same,microsomal CLint,[2],> 300 µL/min/mg
same,hepatocyte CLint at 1 µM,[3],78 µL/min/1e6 cells
same,hepatocyte CLint,[4],130 µL/min/1e6 cells
same,solubility,Solubility (Test F),5 µM
same,Test A Sinf,human RXFP1,113%
COc1cc(F)c(-c2cccc(CC(=O)O)c2)cc1C(=O)N[C@H]1[C@@H](C(=O)Nc2cccc(S(=O)(=O)C(F)(F)F)c2)[C@@H]2C=C[C@H]1C2 (racemic) [Example 281],Test B Human Plasma Protein Binding (% free),[1],0.31 % free
same,microsomal CLint,[2],5.5 µL/min/mg
same,hepatocyte CLint at 1 µM,[3],5 µL/min/1e6 cells
same,hepatocyte CLint,[4],9.1 µL/min/1e6 cells
same,solubility,Solubility (Test F),11 µM
same,Test A Sinf,human RXFP1,170%
same,EC50,human RXFP1,870 nM
"COc1cc(C#N)c(-c2ccc(OCC(=O)O)cc2)cc1C(=O)N[C@@H]1[C@H]2CC[C@H](C2)[C@@H]1C(=O)Nc1cccc(S(=O)(=O)C(F)(F)F)c1 [Example 329, 2-((2′-Cyano-4′-methoxy-5′-(((1S,2R,3S,4R)-3-((3-((trifluoromethyl)sulfonyl)phenyl)carbamoyl)bicyclo[2.2.1]heptan-2-yl)carbamoyl)-[1,1′-biphenyl]-4-yl)oxy)acetic acid]",Test B Human Plasma Protein Binding (% free),[1],0.81 % free
same,microsomal CLint,[2],30 µL/min/mg
same,hepatocyte CLint at 1 µM,[3],5.6 µL/min/1e6 cells
same,hepatocyte CLint,[4],26 µL/min/1e6 cells
same,solubility,Solubility (Test F),1000 µM
same,Test A Sinf,human RXFP1,108%
same,EC50,human RXFP1,140 nM
COc1cc(F)c(O[C@H]2CC[C@@](C)(C(=O)O)CC2)cc1C(=O)N[C@H]1[C@@H](C(=O)NCC2(C)CCC2)[C@@H]2C=C[C@H]1C2 [Example 417],Test B Human Plasma Protein Binding (% free),[1],4.8 % free
same,microsomal CLint,[2],24 µL/min/mg
same,hepatocyte CLint at 1 µM,[3],5.1 µL/min/1e6 cells
same,hepatocyte CLint,[4],17 µL/min/1e6 cells
same,solubility,Solubility (Test F),900 µM
same,Test A Sinf,human RXFP1,102%
same,EC50,human RXFP1,9.8 nM
COc1cc(Cl)c(O[C@H]2CC[C@@](C)(C(=O)O)CC2)cc1C(=O)N[C@@H]1[C@H]2CC[C@H](C2)[C@@H]1C(=O)NCC(C)(C)C [Example 412],Test B Human Plasma Protein Binding (% free),[1],5.3 % free
same,microsomal CLint,[2],13 µL/min/mg
same,hepatocyte CLint at 1 µM,[3],2.6 µL/min/1e6 cells
same,hepatocyte CLint,[4],24 µL/min/1e6 cells
same,solubility,Solubility (Test F),930 µM
same,Test A Sinf,human RXFP1,110%
same,EC50,human RXFP1,37 nM
"COc1cc(F)c(-c2cccc(C(=O)O)c2)cc1C(=O)N[C@H]1[C@@H](C(=O)Nc2cccc(S(=O)(=O)C(F)(F)F)c2)[C@@H]2C=C[C@H]1C2 (single isomer, unassigned) [Example 554]",Test B Human Plasma Protein Binding (% free),[1],<0.30 % free
same,microsomal CLint,[2],< 3 µL/min/mg
same,hepatocyte CLint at 1 µM,[3],5.4 µL/min/1e6 cells
same,hepatocyte CLint,[4],18 µL/min/1e6 cells
same,solubility,Solubility (Test F),700 µM
same,Test A Sinf,human RXFP1,103%
"COc1cc(F)c(O[C@H]2CC[C@@](C)(C(=O)O)CC2)cc1C(=O)N[C@@H]1COCC[C@@H]1C(=O)Nc1cccc(S(=O)(=O)C(F)(F)F)c1 (relative stereo) [Example 559, (1R,4s)-4-(2-Fluoro-4-methoxy-5-(((3S*,4S*)-4-((3-((trifluoromethyl)sulfonyl)phenyl)carbamoyl)tetrahydro-2H-pyran-3-yl)carbamoyl)phenoxy)-1-methylcyclohexane-1-carboxylic acid]",Test B Human Plasma Protein Binding (% free),[1],2.5 % free
same,Test C Human Liver Microsomal Stability Clint,[2]; human liver microsomes,9.4 µL/min/mg
same,Test D Human Hepatocyte Stability Clint,[3]; human hepatocytes,4.1 μL/min/10^6 cells
same,Test E Rat Hepatocyte Stability Clint,[4]; rat hepatocytes,8.4 μL/min/10^6 cells
same,solubility,Solubility (Test F),900 µM
same,Test A Sinf,human RXFP1,102%
same,EC50,human RXFP1,1200 nM
COc1cc(F)c(O[C@H]2CC[C@@](C)(C(=O)O)CC2)cc1C(=O)N[C@@H]1[C@H]2CC[C@H](C2)[C@@H]1C(=O)NCC1(C)CCCCC1 [Example 44],Test B Human Plasma Protein Binding (% free),[1],2.1 % free
same,microsomal CLint,[2],110 µL/min/mg
same,hepatocyte CLint at 1 µM,[3],17 µL/min/1e6 cells
same,hepatocyte CLint,[4],35 µL/min/1e6 cells
same,solubility,Solubility (Test F),300 µM
same,Test A Sinf,human RXFP1,107%
same,EC50,human RXFP1,16 nM
COc1cc(F)c(O[C@H]2C[C@H](C(=O)O)C2)cc1C(=O)NC1[C@H]2CC[C@H](C2)[C@@H]1C(=O)Nc1cccc(S(=O)(=O)C(F)(F)F)c1 (stereo partly drawn) [Example 443],Test B Human Plasma Protein Binding (% free),[1],1.5 % free
same,microsomal CLint,[2],31 µL/min/mg
same,hepatocyte CLint at 1 µM,[3],26 µL/min/1e6 cells
same,hepatocyte CLint,[4],21 µL/min/1e6 cells
same,solubility,Solubility (Test F),760 µM
same,Test A Sinf,human RXFP1,101%
same,EC50,human RXFP1,540 nM
COc1cc(F)c(O[C@H]2CC[C@@H](C(=O)O)CC2)cc1C(=O)N[C@@H]1CCC[C@@H]1C(=O)Nc1ccc(F)c(C(F)(F)F)c1 [Example 492],Test B Human Plasma Protein Binding (% free),[1],1.8 % free
same,microsomal CLint,[2],36 µL/min/mg
same,hepatocyte CLint at 1 µM,[3],18 µL/min/1e6 cells
same,hepatocyte CLint,[4],19 µL/min/1e6 cells
same,solubility,Solubility (Test F),1000 µM
same,Test A Sinf,human RXFP1,106%
same,EC50,human RXFP1,160 nM
COc1cc(F)c(-c2ccn(CCC(=O)O)c(=O)c2)cc1C(=O)N[C@@H]1[C@H]2CC[C@H](C2)[C@@H]1C(=O)Nc1cccc(S(=O)(=O)C(F)(F)F)c1 [Example 249],Test B Human Plasma Protein Binding (% free),[1],3.4 % free
same,microsomal CLint,[2],43 µL/min/mg
same,hepatocyte CLint at 1 µM,[3],11 µL/min/1e6 cells
same,hepatocyte CLint,[4],15 µL/min/1e6 cells
same,solubility,Solubility (Test F),190 µM
same,Test A Sinf,human RXFP1,113%
same,EC50,human RXFP1,320 nM
"COc1cc(F)c(O[C@H]2CC[C@@H](C(=O)O)CC2)cc1C(=O)N[C@@H]1[C@H]2CC[C@H](C2)[C@@H]1C(=O)Nc1cccc(C(F)F)c1 [Example 10, (1S,4s)-4-(5-(((1S,2R,3S,4R)-3-((3-(Difluoromethyl)phenyl)carbamoyl)bicyclo[2.2.1]heptan-2-yl)carbamoyl)-2-fluoro-4-methoxyphenoxy)cyclohexane-1-carboxylic acid]",Test B Human Plasma Protein Binding (% free),[1],2.2 % free
same,microsomal CLint,[2],32 µL/min/mg
same,hepatocyte CLint at 1 µM,[3],11 µL/min/1e6 cells
same,hepatocyte CLint,[4],130 µL/min/1e6 cells
same,solubility,Solubility (Test F),750 µM
same,Test A Sinf,human RXFP1,104%
same,EC50,human RXFP1,500 nM
